Measurements reported in the NIST ThermoML archive (doi:10.1016/j.fluid.2010.01.019).
Numbers after ± are expanded uncertainties.

Conditions: Liquid, Vibrating tube method

CCCCC(=O)OCC(COCC(COC(=O)CCCC)(COC(=O)CCCC)COC(=O)CCCC)(COC(=O)CCCC)COC(=O)CCCC
mass density [kg/m3]
Conditions | 100 kPa | 1000 kPa | 5000 kPa | 10000 kPa | 20000 kPa | 30000 kPa | 40000 kPa | 50000 kPa | 60000 kPa | 70000 kPa
283.15 K | 1045 ± 5.9 | 1045.5 ± 5.9 | 1047.7 ± 5.9 | 1050.4 ± 6 | 1055.8 ± 6.1 | 1060.9 ± 6.2 | 1065.8 ± 6.3 | 1070.5 ± 6.3 | 1075 ± 6.4 | 1079.3 ± 6.5
298.15 K | 1033.7 ± 5.8 | 1034.2 ± 5.8 | 1036.7 ± 5.8 | 1039.7 ± 5.9 | 1045.4 ± 5.9 | 1050.7 ± 6 | 1055.9 ± 6.1 | 1060.8 ± 6.2 | 1065.5 ± 6.3 | 1070 ± 6.4
323.15 K | 1014.6 ± 5.6 | 1015.2 ± 5.6 | 1018 ± 5.6 | 1021.3 ± 5.6 | 1027.6 ± 5.7 | 1033.5 ± 5.8 | 1039 ± 5.9 | 1044.4 ± 6 | 1049.5 ± 6.1 | 1054.3 ± 6.2
333.15 K | 1007 ± 5.5 | 1007.7 ± 5.5 | 1010.6 ± 5.5 | 1014 ± 5.6 | 1020.6 ± 5.6 | 1026.7 ± 5.7 | 1032.4 ± 5.8 | 1037.9 ± 5.9 | 1043.2 ± 6 | 1048.2 ± 6.1
348.15 K | 995.5 ± 5.3 | 996.3 ± 5.4 | 999.4 ± 5.4 | 1003.1 ± 5.4 | 1010 ± 5.5 | 1016.4 ± 5.6 | 1022.5 ± 5.7 | 1028.3 ± 5.8 | 1033.8 ± 5.9 | 1039.1 ± 5.9
373.15 K | 975.7 ± 11 | 977.3 ± 7.6 | 980.8 ± 7.7 | 984.9 ± 7.7 | 992.5 ± 7.7 | 999.6 ± 7.8 | 1006.2 ± 7.8 | 1012.5 ± 7.9 | 1018.4 ± 7.9 | 1024 ± 8
398.15 K | 957 ± 11 | 957.8 ± 7.5 | 961.4 ± 7.5 | 965.9 ± 7.6 | 974.4 ± 7.6 | 982.1 ± 7.7 | 989.3 ± 7.7 | 996.1 ± 7.7 | 1002.4 ± 7.8 | 1008.4 ± 7.8

CCCCCCC(=O)OCC(COCC(COC(=O)CCCCCC)(COC(=O)CCCCCC)COC(=O)CCCCCC)(COC(=O)CCCCCC)COC(=O)CCCCCC [dipentaerythritol hexaheptanoate]
mass density [kg/m3]
Conditions | 100 kPa | 1000 kPa | 5000 kPa | 10000 kPa | 20000 kPa | 30000 kPa | 40000 kPa | 50000 kPa | 60000 kPa | 70000 kPa
283.15 K | 1000.3 ± 5.4 | 1000.9 ± 5.4 | 1003.2 ± 5.4 | 1005.9 ± 5.5 | 1011.2 ± 5.5 | 1016.1 ± 5.6 | 1020.8 ± 5.7 | 1025.4 ± 5.7 | 1029.9 ± 5.8 | 1034.2 ± 5.9
298.15 K | 989.7 ± 5.3 | 990.3 ± 5.3 | 992.8 ± 5.3 | 995.7 ± 5.4 | 1001.3 ± 5.4 | 1006.4 ± 5.5 | 1011.3 ± 5.5 | 1016.1 ± 5.6 | 1020.7 ± 5.7 | 1025.2 ± 5.7
323.15 K | 971.7 ± 5.1 | 972.2 ± 5.1 | 974.9 ± 5.1 | 978.2 ± 5.2 | 984.4 ± 5.2 | 990.1 ± 5.3 | 995.5 ± 5.4 | 1000.6 ± 5.4 | 1005.6 ± 5.5 | 1010.3 ± 5.5
333.15 K | 964.4 ± 5 | 965.1 ± 5 | 967.9 ± 5.1 | 971.3 ± 5.1 | 977.8 ± 5.2 | 983.7 ± 5.2 | 989.3 ± 5.3 | 994.6 ± 5.4 | 999.7 ± 5.4 | 1004.6 ± 5.5
348.15 K | 953.7 ± 4.9 | 954.4 ± 4.9 | 957.4 ± 5 | 961 ± 5 | 967.8 ± 5.1 | 974.1 ± 5.2 | 980 ± 5.2 | 985.6 ± 5.3 | 990.9 ± 5.3 | 996 ± 5.4
373.15 K | 935 ± 11 | 936.6 ± 7.4 | 939.9 ± 7.4 | 943.9 ± 7.5 | 951.4 ± 7.5 | 958.3 ± 7.6 | 964.7 ± 7.6 | 970.8 ± 7.6 | 976.5 ± 7.7 | 981.9 ± 7.7
398.15 K | 917.4 ± 11 | 918.2 ± 7.3 | 921.7 ± 7.3 | 926.1 ± 7.4 | 934.4 ± 7.4 | 941.9 ± 7.5 | 948.9 ± 7.5 | 955.5 ± 7.6 | 961.6 ± 7.6 | 967.3 ± 7.6
